In US6486199B1, “Spiro and dispiro 1,2,4-trioxolane antimalarials” (Medicines for Malaria Venture MMV International Centre …, priority 2001, dated 2002):
In brackets after ≈: the same amount, converted by molar mass. Read-outs that look alike come from different tables or passages of the source. Marks after values point to notes of the source that are not given here.

What was measured:
[1] = test system: ANKA strain of P. Berghei; assay: single dose STI in vivo screen in infected Moro SPF mice; conditions: for inhibition in vivo at 10 mg/kg: Plasmodium berghei, 72 h; for Survival (days) po / Activity (%) po: single 10 mg/kg po; for Survival (days) sc / Activity (%) sc: single 10 mg/kg sc; for antimalarial activity, overall assessment: overall judgement of in vitro and in vivo data of Table 2; for in vivo activity: 10 mg/kg po/sc data of Table 2; for Activity (%) po / Activity (%) sc: percent reduction in parasitemia day 3 post-infection
P. berghei [2] = assay: 1-day Peters test against P. berghei in vivo; conditions: for ED50 / ED90: Plasmodium berghei, 24 h; for ED90: read-out: P. berghei (1 day) ED90 po; for oral activity based on po ED50/ED90 values: ranking among trioxolanes and controls
[3] = test system: chloroquine-resistant K1 strain of P. falciparum; assay: in vitro screen against chloroquine-resistant K1 strain of P. falciparum; format: cell-based; conditions: for IC50: Plasmodium falciparum, K1, read-out: IC50 (ng/ml) K1; for IC50 (ng/ml) K1 / in vitro potency, fold less potent than the analog: in vitro; for IC50 (ng/ml) K1: K1 strain
[4] = test system: chloroquine-sensitive NF54 strain of P. falciparum; assay: in vitro screen against chloroquine-sensitive NF54 strain of P. falciparum; format: cell-based; conditions: for IC50: Plasmodium falciparum, NF54, read-out: IC50 (ng/ml) NF54; for IC50 (ng/ml) NF54: in vitro, NF54 strain
parasitemia = assay: onset of drug action and recrudescence after single oral dose; format: in vivo; conditions: for Recrudescence (>5% parasitemia) occurs on day: single 100 mg/kg po on day +3 post-infection
Description: The reduction of parasitemia was monitored 12 h after treatment, and the time of recrudescence was assessed by daily blood smears for 14 days, followed by intermittent assessment for up to 30 days.

NB2a cell line = assay: neurotoxicity against the NB2a cell line; format: cell-based; conditions: NB2a cell line
[5] = differential scanning calorimetry (DSC), thermal stability; format: physicochemical; conditions: thermal decomposition
[6] = test system: adult schistosomes (49-day-old) of Schistosoma mansoni; assay: effect on adult schistosomes (49-day-old) in mice; format: in vivo; conditions: dose used was 200 mg/kg; for TWR (%): total worm reduction rate; for Mean total worm burden: x ± SD
[7] = test system: 21-day-old schistosomules of Schistosoma mansoni; assay: effect on 21-day-old schistosomules in mice; format: in vivo; conditions: single 200 mg/kg per os; for FWR (%): female worm reduction rate; for Mean female worm burden: mean ± standard deviation; for TWR (%): total worm reduction rate
Description: […] Each group was treated per os with OZ compounds at a single dose of 200 mg/kg. Untreated mice served as the control. All groups were killed 4 weeks after treatment and the liver and intestine were removed and separated. The liver and intestine were compressed and alive male and female worms could be seen and counted. The effect of the compounds was evaluated by mean total and female worm burden.

[8] = test system: adult schistosomes (49-day-old) of Schistosoma mansoni; assay: effect on adult schistosomes (49-day-old) in mice; format: in vivo; conditions: single 400 mg/kg per os; for TWR (%): total worm reduction rate; for Mean total worm burden: x ± SD
Description: Mice were infected with 100 Schistosoma mansoni cercariae […]. Each group was treated per os with OZ compounds at a single dose of 400 mg/kg. Untreated mice served as the control. All groups were killed 4 weeks after treatment and the liver and intestine were removed and separated. The liver and intestine were compressed and alive male and female worms could be seen and counted.

P. berghei [9] = assay: 4-day Peters test against P. berghei in vivo; conditions: 4 day
[10] = po, read-out: P. berghei (1 day) ED50 po
[11] = sc, read-out: P. berghei (1 day) ED50 sc

SMILES	P. berghei (1 day) ED90 sc (P. berghei [2]; sc)	IC50 [3] [ng/mL]	IC50 [4] [ng/mL]	Tm dec. (° C.) [5] [°C]	FWR (%) [7] [%]	Mean female worm burden [7]	TWR (%) [7] [%]	Percentage of dead worm [8]	Total dead worm [8]	TWR (%) [8] [%]	Mean total worm burden [8]	also measured
C[C@H]1[C@H](OC(=O)CCC(=O)O)O[C@@H]2O[C@@]3(C)CC[C@H]4[C@H](C)CC[C@@H]1[C@@]24OO3 [Artesunate, artesunate, reference compound]	16 mg/kg	1.2 (≈ 0.00312 µM)	1.2 (≈ 0.00312 µM)									inhibition in vivo at 10 mg/kg ([1]; po, read-out: Activity (%) po): 83.3%; inhibition in vivo at 10 mg/kg ([1]; sc, read-out: Activity (%) sc): 81.1%; Survival (days) po [1]: 7.1 days; Survival (days) sc [1]: 8.0 days; ED50 (P. berghei [2]; [10]): 5 mg/kg; ED90 (P. berghei [2]; po): 13 mg/kg; ED50 (P. berghei [2]; [11]): 0.86 mg/kg; Recrudescence (>5% parasitemia) occurs on day (parasitemia): 2 days; onset of action: decline in parasitemia (parasitemia; single 100 mg/kg po, monitored 12 h after treatment): rapid decline in parasitemia
CCOC(=O)CCC1CCCCC12OOC1(O2)C2CC3CC(C2)CC1C3 (stereo not shown) [OZ08, Adamantane-2-spiro-3′-6′-[2′-(ethoxycarbonyl)ethyl]-1′,2′,4′-trioxaspiro[4.5]decane]												antimalarial activity, overall assessment [1]: more active; IC50 (NB2a cell line): 42 µM
O=C1C2C3CC4C5C3C1C5C1(OOC3(O1)C1CC5CC(C1)CC3C5)C42 (stereo not shown) [OZ14, Adamantane-2-spiro-3′-1′,2′,4′-trioxolane-5′-spiro-8″-11″-oxopentacyclo[5.4.0.0^2″,6″.0^3″,10″.0^5″,9″]undecane]				113.3	0	12.4 ± 4.2	7					Percentage of dead worm [6]: 0; Total dead worm [6]: 0; TWR (%) [6]: 0%; Mean total worm burden [6]: 44.5 ± 13.2
O=C1CCC2(CCO1)OOC1(O2)C2CC3CC(C2)CC1C3 (stereo not shown) [OZ17, Adamantane-2-spiro-3′-9′-oxo-1′,2′,4′,8′-tetraoxaspiro[4.6]undecane]				158.4	7	11.6 ± 3.3^a	23	5.2 (10/191)	10	0	36.2 ± 13.8	IC50 (ng/ml) K1 [3]: 85 ng/mL (≈ 0.289 µM); IC50 (ng/ml) NF54 [4]: > 100 ng/mL
C1CCCCCC2(CCCCC1)OOC1(O2)C2CC3CC(C2)CC1C3 (stereo not shown) [OZ20, Adamantane-2-spiro-3′-1′,2′,4′-trioxaspiro[4.11]hexadecane]	10 mg/kg	15 (≈ 0.043 µM)	20 (≈ 0.0574 µM)	170.5	0	13.8 ± 5.5	0	0	0	0	38.6 ± 3.6	ED50 (P. berghei [2]; [10]): 4.3 mg/kg; ED90 (P. berghei [2]; po): 9.7 mg/kg; ED50 (P. berghei [2]; [11]): 7.1 mg/kg; in vitro potency, fold less potent than the analog [3]: order of magnitude
O=C1CCC2(CC1)OOC1(CCCCCCCCCCC1)O2 [OZ21, 3-Oxo-7,20,21-trioxadispiro[5.1.11.2]heneicosane]		14 (≈ 0.0451 µM)	25 (≈ 0.0805 µM)	190.7	0	15.0 ± 9.7	0	0	0	0	36.2 ± 9.0	in vivo activity [1]: all in vivo activity was lost; Activity (%) po [1]: 0/0%; Activity (%) sc [1]: 0/0%; in vitro potency, fold less potent than the analog [3]: 70 fold
CCOC(=O)N1CCC2(CC1)OOC1(O2)C2CC3CC(C2)CC1C3 (stereo not shown) [OZ23, Adamantane-2-spiro-3′-8′-ethoxycarbonyl-1′,2′,4′-trioxa-8′-azaspiro[4.5]decane]	NA/1.9 mg/kg			160.8	84	2.0 ± 1.0^b	90					in vivo activity [1]: best in vivo activity; P. berghei (4 day) ED50 po (P. berghei [9]): 0.9 mg/kg; P. berghei (4 day) ED90 po (P. berghei [9]): 2.0 mg/kg; P. berghei (4 day) ED50 sc (P. berghei [9]): 0.5 mg/kg; P. berghei (4 day) ED90 sc (P. berghei [9]): 0.9 mg/kg; P. berghei (1 day) ED50 po (P. berghei [2]; po): 1.6 mg/kg; P. berghei (1 day) ED90 po (P. berghei [2]; po): 5.5 mg/kg; oral activity based on po ED50/ED90 values (P. berghei [2]; po): only slightly less orally active than OZ11; Percentage of dead worm [6]: 4 (5/124); Total dead worm [6]: 5; TWR (%) [6]: 0%; Mean total worm burden [6]: 39.7 ± 19.6
c1ccc(C2CCC3(CC2)OOC2(O3)C3CC4CC(C3)CC2C4)cc1 (stereo not shown) [OZ27, Adamantane-2-spiro-3′-8′-phenyl-1′,2′,4′-trioxaspiro[4.5]decane]	3.1 mg/kg			161.7	58	5.2 ± 1.6^b	63	9.6 (15/157)	15	19.6	28.4 ± 9.5^a	antimalarial activity, overall assessment [1]: excellent activity; P. berghei (4 day) ED50 po (P. berghei [9]): 1.3 mg/kg; P. berghei (4 day) ED90 po (P. berghei [9]): 2.6 mg/kg; P. berghei (4 day) ED50 sc (P. berghei [9]): 0.2 mg/kg; P. berghei (4 day) ED90 sc (P. berghei [9]): 0.9 mg/kg; P. berghei (1 day) ED50 po (P. berghei [2]; po): 1.9 mg/kg; P. berghei (1 day) ED90 po (P. berghei [2]; po): 3.2 mg/kg; P. berghei (1 day) ED50 sc (P. berghei [2]; sc): 1.8 mg/kg; oral activity based on po ED50/ED90 values (P. berghei [2]; po): only slightly less orally active than OZ11; IC50 (ng/ml) K1 [3]: 2.2 ng/mL (≈ 0.00646 µM); IC50 (ng/ml) NF54 [4]: 4.8 ng/mL (≈ 0.0141 µM); duration of action compared with artemether (parasitemia; single 100 mg/kg po): longer; Recrudescence (>5% parasitemia) occurs on day (parasitemia): 11 days
O=[N+]([O-])c1ccc(NN=C2CCC3(CC2)OOC2(O3)C3CC4CC(C3)CC2C4)c([N+](=O)[O-])c1 (stereo not shown) [OZ29, Adamantane-2-spiro-3′-1′,2′,4′-trioxaspiro[4.5] decan-8′-one 2,4-dinitrophenylhydrazone]		9.7 (≈ 0.0212 µM)	13 (≈ 0.0284 µM)	155.7	20	10.0 ± 3.7^a	28	0	0	13.4	31.0 ± 13.7^a	Activity (%) po [1]: 0/0%; Activity (%) sc [1]: 0/0%; Survival (days) po [1]: 5.0/5.0 days; Survival (days) sc [1]: 5.0/5.0 days
OC1CCC2(CC1)OOC1(O2)C2CC3CC(C2)CC1C3 (stereo not shown) [OZ32, Adamantane-2-spiro-3′-8′-hydroxy-1′,2′,4′-trioxaspiro[4.5]decane]	2.1 mg/kg			147.9	70	3.8 ± 1.9^b	73	27.6 (50/181)	50	26.8	26.2 ± 5.9^b	P. berghei (4 day) ED50 po (P. berghei [9]): 2.6 mg/kg; P. berghei (4 day) ED90 po (P. berghei [9]): 5.1 mg/kg; P. berghei (4 day) ED50 sc (P. berghei [9]): 0.6 mg/kg; P. berghei (4 day) ED90 sc (P. berghei [9]): 1.3 mg/kg; P. berghei (1 day) ED50 po (P. berghei [2]; po): 1.9 mg/kg; P. berghei (1 day) ED90 po (P. berghei [2]; po): 13 mg/kg; P. berghei (1 day) ED50 sc (P. berghei [2]; sc): > 1 mg/kg; IC50 (ng/ml) K1 [3]: 0.25 ng/mL (≈ 0.000892 µM); IC50 (ng/ml) NF54 [4]: 0.51 ng/mL (≈ 0.00182 µM)
CC1(C)COC2(CCC3(CC2)OOC2(CC(C)(C)CC(C)(C)C2)O3)OC1 [OZ36, 2,2,4,4,14,14-Hexamethyl-7,12,16,19,20-pentaoxatrispiro[5.1.2.5.2.2]icosane]		24 (≈ 0.0651 µM)	62 (≈ 0.168 µM)	201.7	12	11.0 ± 4.0^a	16	0	0	0	40.2 ± 12.2	in vivo activity [1]: all in vivo activity was lost; Activity (%) po [1]: 0/0%; Activity (%) sc [1]: 0/0%; Survival (days) po [1]: 5.7/5.7 days; Survival (days) sc [1]: 5.7/5.7 days; in vitro potency, fold less potent than the analog [3]: ~20 fold
